Patent publication US20240335503A1, “ROMIDEPSIN AS A THERAPEUTIC AGENT FOR NERVE-INJURY INDUCED NEUROPATHIC PAIN AND SPASTICITY” (The United States Government as represented by the …, priority 2021, published 2024)
Entries after “also recorded” stand apart in the source; their conditions may differ. Read-outs that look alike come from different tables or passages of the source.

Legend:
[1] = test system: primary cultured spinal cord dorsal horn neurons; assay: Dendritic spine density in primary cultured neurons with PAK1 inhibitor; format: cell-based; details: PAK1 inhibitor treatment; FIG. 11
Protocol: To assess whether PAK1 inhibition would disrupt dendritic spines, a morphological correlate of spasticity, the effect of a non-pharmaceutical grade PAK1 inhibitor, IPA3, on primary cultured spinal cord dorsal horn neurons was measured using previous methods (Tan et al., 2011).

[2] = test system: nerve injury-induced chronic pain; assay: Spared nerve injury (SNI) pain model, mechanical-evoked pain; format: in vivo; details: mouse SNI, IP once/day for 5 days at 0.25 mg/kg, FIG. 27
From the text: An SNI is a transection-type peripheral nerve injury model, whereby a portion of the sciatic nerve innervating the hindlimb is ligated and cut. In this nerve injury model, the common peroneal and tibial nerves are injured, producing consistent and reproducible pain hypersensitivity in the cutaneous territory of the spared sural nerve. Additionally, the SNI leads to prolonged mechanical and thermal hyperresponsiveness in behavioral studies, which closely mimic clinically-described neuropathic pain conditions (Cichon et al., 2018). With an SNI, adult mice rapidly develop maximal neuropathic pain sensitivity within 3 days post-SNI (Benson et al., 2020; Cichon et al., 2018).
To evaluate the efficacy of romidepsin in treating nerve-induced chronic pain, the following comparator groups were prepared (weight-matched, adult male/female equally mixed C57BL/6 mice): Sham (n=5), SNI+Vehicle (n=5), and SNI+romidepsin (n=5). Romidepsin was administered as an intraperitoneal (IP) injection for five consecutive days after SNI (once/day for 5 days: 5 μl per injection at 0.25 mg/kg). Vehicle administration route was the same as romidepsin (1% diluted in DMSO; IP route), and sham animals underwent all procedures except for nerve injury.

[3] = test system: adult mice; details: mouse, in vivo
Protocol: Rationale for Dosing: These initial romidepsin dosages were determined on two interrelated rationales. […] 2) Because it is expected that the utility of romidepsin for pain mitigation would likely require longer-term use than for the oncology indication, a pilot study in mice was performed with a lower dose of romidepsin for a prolonged period of time (once daily injections up to 14 days).

[4] = test system: humans; details: human, in vivo; cited from earlier work
[5] = cited from earlier work
[6] = Maximum tolerated dose in SCI mouse model (weight loss, paw grip-strength, mobility); format: in vivo; details: mouse, in vivo; once/day for 3 days; 10 μl per IP injection; diluted in 1% DMSO
Protocol: (§1) As detailed elsewhere herein, the feasibility of “repurposing” a clinically approved drug to address spasticity in SCI will be evaluated. Here, testing the efficacy of romidepsin, an FDA-approved drug, to reduce PAK1 activity in the spinal cord and SCI-induced spasticity has begun. […] Initial test dosages were calculated from human trial data using FDA guidelines for converting drug dosage from human to animal.
(§2) Vehicle (1% DMSO) was used as a control treatment.

[7] = test system: SCI mouse model; assay: as above; format: in vivo
Protocol: as §1, §2

[8] = test system: SCI-induced spasticity; assay: Evoked H-reflex EMG recordings (rate-dependent depression) in SCI spasticity model; format: in vivo, mouse
Protocol: as §1
Study Design: Four animal groups were prepared (adult m/f mix; 6-8 weeks old; n=60/group); 1) Sham+DMSO/vehicle, 2) Sham+Romidepsin, 3) SCI+DMSO/vehicle, and 4) SCI+Romidepsin. […]
H-reflex electrophysiology-EMG recordings of evoked H-reflex will be performed in the plantar muscle group (Bandaru et al., 2015; Benson et al., 2017; Boulenguez et al., 2010; Nielsen et al., 2007). […] Three trials (10 sweeps/trial) will be recorded for each paired-pulse. Rectified traces will be analyzed. […] The H/M ratio will be calculated using the peak amplitude of M-wave and H-reflex following the test pulse. H-reflex EMG studies provide specific readout only of the monosynaptic circuit, and is therefore an accurate measure of the spinal stretch reflex response without the confounds of supraspinal, interneuronal, or other motor neuron sub-type input (Nielsen et al., 2007).

[9] = test system: p-Raf; assay: p-Raf expression in spinal cord neurons (histological analysis); format: in vivo, mouse; details: spinal cord after SCI; FIG. 16
From the text: Outcome Measures: On days 14, 28, and 35 post-SCI, spinal cord and brain tissue were collected for histological analyses. Tissue was processed using SWITCH clearing and immunohistochemistry performed to analyze protein expression levels of inflammatory markers, i.e., GFAP/OX42 for astro/microgliosis, cfos, p38, p-Raf, or PAK1 activity (Stamboulian et al., 2010); Tan et al., 2011; Tan et al., 2008). Because mice are Thy1-GFP transgenic animals, α-motor neurons were identified using established morphological criteria, including soma size and topographical location (Bandaru et al., 2015; Tan et al., 2012a). GFP-expressing dendritic spines were visualized, and their morphology profiled in association with spasticity. All data was statistically compared across groups (Bandaru et al., 2015; Zhao et al., 2016). To determine the efficacy of romidepsin treatments on SCI-induced spasticity, anatomical and biochemical data were correlated with spasticity outcomes. […]
(§3) To monitor in vivo drug-response using established clinical biomarkers from all animals before and after intrathecal treatment with romidepsin at MTD, histone acetylation in peripheral blood mononuclear cells (PBMCs) or lymphocytes/monocytes in CSF (i.e., ELISA pharmacodynamics assessment) will be assessed (Cotto et al., 2010; VanderMolen et al., 2011). […]

[10] = molecular target: PAK1 (Homo sapiens, UniProt Q13153); details: cited from earlier work
PAK1, sequence (Q13153 whole entry): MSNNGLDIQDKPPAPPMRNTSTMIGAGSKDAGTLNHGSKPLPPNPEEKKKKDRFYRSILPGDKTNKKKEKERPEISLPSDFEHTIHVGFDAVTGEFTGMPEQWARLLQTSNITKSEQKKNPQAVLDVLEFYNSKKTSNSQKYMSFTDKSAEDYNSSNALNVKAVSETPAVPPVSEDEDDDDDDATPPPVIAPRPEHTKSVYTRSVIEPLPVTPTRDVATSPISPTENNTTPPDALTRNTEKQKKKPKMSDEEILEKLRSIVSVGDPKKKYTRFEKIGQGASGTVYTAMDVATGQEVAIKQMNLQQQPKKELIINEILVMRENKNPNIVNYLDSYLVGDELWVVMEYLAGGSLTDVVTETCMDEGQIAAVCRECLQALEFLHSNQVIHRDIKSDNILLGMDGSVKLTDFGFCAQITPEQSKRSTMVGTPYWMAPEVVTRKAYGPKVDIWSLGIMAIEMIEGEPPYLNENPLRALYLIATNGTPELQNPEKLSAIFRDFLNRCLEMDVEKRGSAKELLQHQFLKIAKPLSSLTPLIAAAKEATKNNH

[11] = test system: acetyl histone-H3; details: injected intraperitoneally; within 24-hours post-administration; dorsal horn L4 (Guo et al., 2018); FIG. 25; cited from earlier work
[12] = test system: acetyl histone-H3; format: in vivo, mouse; details: vs control treated animal tissues; FIG. 17
Protocol: as §1
To monitor in vivo drug-response using established clinical biomarkers from all animals before and after treatment with romidepsin, histone acetylation was assessed in spinal cord tissue, peripheral blood mononuclear cells (PBMCs), and monocytes from CSF (i.e., ELISA pharmacodynamics assessment) (Cotto et al., 2010); VanderMolen et al., 2011). Liquid samples were collected using routine blood or spinal CSF draws.
as §3

Oc1ccc2ccccc2c1SSc1c(O)ccc2ccccc12 [IPA3]
dendritic spine density [1]: decreases

C/C=C1\NC(=O)[C@H]2CSSCC/C=C/[C@H](CC(=O)N[C@H](C(C)C)C(=O)N2)OC(=O)[C@H](C(C)C)NC1=O [romidepsin]
mechanical-evoked pain [2]: significant decrease in mechanical-evoked pain; also recorded: significantly decreases mechanical-evoked pain
adverse effects (ambulation, body mass loss, outward signs of toxicity) [3]: no observable adverse effects
food intake [3]: appeared the same
occurrence of adverse reactions (grade 3 or 4) related to weight loss and fatigue [4]: 2-8%
blood brain barrier (BBB) penetration ([5]; administered systemically in non-human primates or rodents/rats, drug and active metabolites): can passively penetrate through the blood brain barrier (BBB) in relatively low concentrations
half-life ([5]; depending on the organism (Berg et al., 2004)): < 10 h
half-life ([5]; published PK/PD studies (Berg et al., 2004)): < 10 h
half-life ([5]; published human PK/PD studies (Berg et al., 2004)): < 10 h
MTD at 3 days [6]: 1.25 mg/kg
maximum tolerated dose (MTD) ([7]; SCI mouse model, once/day IP injection over 3 days, 0.1 ml): 1.25 mg/kg/injection
body weight ([7]; mouse, in vivo): does not affect
paw-grip strength ([7]; mouse, in vivo): does not affect
RDD of H-reflex (spasticity) ([8]; SCI animals vs vehicle control, preliminary EMG studies, FIG. 13): partially restored RDD; also recorded: partial reduction in spasticity
RDD of H-reflex (H/M ratio) ([8]; SCI mice, IP injection at 0.25 mg/kg vs control vehicle, FIG. 15, 0.25 mg/kg): significant restoration of rate-dependent depression (RDD)
expression of p-Raf on Thy-YFP expressing cells (neurons) [9]: significantly decreases
concentrations that significantly reduce PAK1 kinase activity ([10]; Hirokawa et al., 2005, Maruta, 2011): 0.1 to 1 nM
PAK1 protein level ([10]; at 0.1-1 nM): without changing
histone acetylation in neurons [11]: upregulation of histone acetylation in neurons; also recorded: upregulation in acetyl histone-H3 in neurons
H3 density in spinal cord tissues [12]: significant increase in H3 density
